Entries after “also recorded” stand apart in the source; their conditions may differ.
What was measured:
NIT cells = conditions: cited from earlier work
[1] = system: atherosclerotic plaques in proximal aorta; assay: Morphometric analysis of plaque size in proximal aorta cross sections; assay type: in vivo, mice; conditions: IP 0.4 mg/kg/day, 16 weeks
[2] = system: atherosclerotic plaque in the aortic arch; assay: TUNEL staining of apoptotic cells in plaques of the aortic arch; assay type: in vivo; conditions: Group 4: ApoE-deficient mice, high cholesterol diet
Procedure: The effect of HNGF6A on mice was studied in 4 different animal groups (n=12 per group); Group 1: C57BL/6 feed normal diet+intraperitoneal (IP) saline, Group 2: C57BL/6 feed normal diet+IP HNGF6A, Group 3: ApoE-deficient feed high cholesterol diet+IP saline, and Group 4: ApoE-deficient feed high cholesterol diet+IP HNGF6A (Group 4). Experiment was conducted over the course of 16 weeks. Female C57BL/6 mice and Apo E-deficient mice were obtained at the age of 4 weeks from Jackson Laboratory Animals had free access to water, were maintained at 24° C., and kept at a 12 hr light/dark cycle. Depending on the study group, the mice were treated with a normal diet or high cholesterol diet (HC, 0.15% cholesterol and 42% milk fat by weight, TD88137 or “Western diet”; Harlan Teklad) and received intraperitoneal injection (IP) of saline or HNGF6A (glycine variant of HN, 0.4 mg/kg/day, Peptide International, Louisville, Ky.) for 16 weeks. […] Blood samples were collected by cardiac puncture. Terminal deoxynucleotidyl transferase dUTP nick end labeling (TUNEL) was performed using the in situ Apoptosis Detection Kit (S7100-KIT; Chemicon). The procedure was performed following the manufacturers' protocol. […] The number of positive cells in atherosclerotic plaque was counted using x400 magnification. […] Data was expressed as mean±SEM. […]

[3] = system: human aortic endothelial cells (HAECs); assay: TUNEL assay of Ox-LDL induced apoptosis in HAEC; assay type: cell-based; conditions: pre-incubated overnight with 0.1 μM, then 100 μg/ml Ox-LDL for 6 hours
Procedure: To accomplish this, a TUNEL assay was applied to measure the levels of apoptosis in HAECs treated with or without HN prior to exposure with Ox-LDL (FIG. 2). HAECs were plated on glass cover slips and incubated overnight with or without added HN (0.1 μM). The cells were then exposed to Ox-LDL (100 μg/ml; Biomedical Technologies Inc.) for 6 hours at 37° C. in the absence of HN. Apoptotic cells were quantified by TUNEL assay using the In Situ Death Detection Kit® (Roche Applied Science), mounted in SlowFade containing DAPI (Invitrogen) and observed by flourescent microscope. Apoptotic cells were defined based in morphological changes in the nuclei and the fluorescent intensity after TUNEL staining. The apoptotic index (AI)=(number of apoptotic cells)/(total number of cells)

[4] = system: human aortic endothelial cells (HAECs); assay: Cellular ceramide levels by HPLC/MS/MS after Ox-LDL; assay type: cell-based; conditions: 0.1 μM overnight, then Ox-LDL 100 μg/ml for 6 hours
Procedure: HAECs were plated on glass cover slips and incubated overnight with or without added HN (0.1 μM). The cells were then exposed to Ox-LDL (100 μg/ml; Biomedical Technologies Inc.) for 6 hours. Cells were then scraped into PBS, pelleted and frozen in liquid nitrogen. These samples were sent to MUSC-lipidomics core (Lipidomics Analytical Unit) for processing to detect and quantify individual ceramide species by HPLC/MS/MS.

[5] = system: human aortic endothelial cells (HAECs); assay: Ox-LDL induced ROS production, dihydroethidium (DHE) fluorescence; assay type: cell-based
Procedure: Prior studies have reported that treatment of vascular endothelial cells with oxidized low density lipoprotein (LDL) stimulates reactive oxygen species (ROS) formation. To test whether humanin (HN) affects Ox-LDL induced ROS production in endothelial cells, the fluorescent probe dihydroethidium was utilized in order to detect superoxide in living cells. DHE fluorescence was measured in human aortic endothelial cells (HAECs) preincubated with HN and subsequently exposed to Ox-LDL. Intracellular ROS production was monitored by following the conversion of the oxidant sensitive dye dihydroethidine to fluorescent ethidium.
To accomplish this, as described in Bachar et al. (2010) Cardiovasc. Res. 88(2):360-6 (incorporated by reference in its entirety). […] Fluorescent images were then taken with an inverted fluorescent microscope (Olympus IX70) at 15× magnification using appropriate filters fro ethidium fluorescence. Ten to twelve non-overlapping images in each culture dish were acquired and quantified by image analysis using Metamorph software (Molecular Devices). Only those cells whose fluorescence exceeded twice the basal level of fluorescence of non-treated cells were used for quantification of DHE fluorescence. Values are expressed as average relative fluorescence units for n≧100 cells per experimental condition in 2 independent experiments. […]

F6AK21A-HNG: SEQ ID NO:17 MAPRGASCLLLLTGEIDLPVARRA (listed as Homo sapiens)
potency compared to humanin in promoting survival and activating STAT-3 and ERK (NIT cells): even greater potency

HNGF6A: HN analogue, SEQ ID NO:16 MAPRGASCLLLLTGEIDLPVKRRA (listed as Homo sapiens)
presence of plaque in aorta ([1]; Group 2: C57BL/6 mice, normal diet, 0.4 mg/kg/day): Plaques were not visible; also recorded: no plaque was apparent
plaque size ([1]; Group 4: ApoE-deficient mice, high cholesterol diet): 0.01±0.003 mm^2
potency compared to humanin in promoting survival and activating STAT-3 and ERK (NIT cells): even greater potency
numbers of apoptotic cells in plaques compared to Group 3 (in words) ([2]; IP): significantly decreased
number of apoptotic cells in plaques in the aortic arch ([2]; IP 0.4 mg/kg/day, 16 weeks, mean±SEM): 84±17 cells/mm^2

Z-FIN: SEQ ID NO:18 MAKRGLNCLPHQVSEIDLSVQKRI (listed as Homo sapiens)
potency compared to humanin in promoting survival and activating STAT-3 and ERK (NIT cells): two-fold greater potency than humanin

humanin (MAPRGFSCLLLLTSEIDLPVKRRA; listed as Homo sapiens) [HN]
relative decrease in apoptosis compared to cells without pretreatment [3]: more than 50%
total cellular amount of ceramides, including C16-ceramide [4]: decrease
decrease in ROS production ([5]; HN pretreatment overnight prior to Ox-LDL (100 μg/ml, 30 min) exposure): approximately 50%
decrease in Ox-LDL induced ROS formation, dose dependence ([5]; HN titration): dose-dependent manner

From patent US20130123168A1, “HUMANIN AND HUMANIN-ANALOGUES FOR THE MANAGEMENT OF ATHEROSCLEROSIS” (The Regents of the University of California, priority 2011, published 2013)
